Columns and labels:
ABL2/ARG = ABL2/ARG (Homo sapiens, UniProt P42684); details: 1 μM; Run 1, Run 2
ERK7/MAPK15 = target: T1, ERK7/MAPK15 (Homo sapiens, UniProt Q8TD08); details: 1 μM; Run 1, Run 2
T1 sequence (Q8TD08 1-544): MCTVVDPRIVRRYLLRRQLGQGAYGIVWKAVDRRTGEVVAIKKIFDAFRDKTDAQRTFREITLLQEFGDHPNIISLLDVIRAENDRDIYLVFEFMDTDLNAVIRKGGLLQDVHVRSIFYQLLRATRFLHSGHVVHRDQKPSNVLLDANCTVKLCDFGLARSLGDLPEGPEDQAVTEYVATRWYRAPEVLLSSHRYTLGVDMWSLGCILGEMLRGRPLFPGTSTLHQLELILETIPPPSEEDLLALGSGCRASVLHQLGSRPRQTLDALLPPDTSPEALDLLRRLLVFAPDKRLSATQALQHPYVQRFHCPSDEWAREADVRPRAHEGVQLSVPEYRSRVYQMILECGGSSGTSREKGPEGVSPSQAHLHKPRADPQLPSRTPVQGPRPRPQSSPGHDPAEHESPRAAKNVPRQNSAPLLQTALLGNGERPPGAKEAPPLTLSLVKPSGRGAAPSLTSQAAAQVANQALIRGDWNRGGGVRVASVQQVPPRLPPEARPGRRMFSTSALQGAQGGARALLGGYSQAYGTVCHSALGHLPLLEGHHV

LYN B = LYN B (Homo sapiens, UniProt P07948); details: 1 μM; Run 1, Run 2
Sequence of LYN B (P07948 1-491 isoform P07948-2): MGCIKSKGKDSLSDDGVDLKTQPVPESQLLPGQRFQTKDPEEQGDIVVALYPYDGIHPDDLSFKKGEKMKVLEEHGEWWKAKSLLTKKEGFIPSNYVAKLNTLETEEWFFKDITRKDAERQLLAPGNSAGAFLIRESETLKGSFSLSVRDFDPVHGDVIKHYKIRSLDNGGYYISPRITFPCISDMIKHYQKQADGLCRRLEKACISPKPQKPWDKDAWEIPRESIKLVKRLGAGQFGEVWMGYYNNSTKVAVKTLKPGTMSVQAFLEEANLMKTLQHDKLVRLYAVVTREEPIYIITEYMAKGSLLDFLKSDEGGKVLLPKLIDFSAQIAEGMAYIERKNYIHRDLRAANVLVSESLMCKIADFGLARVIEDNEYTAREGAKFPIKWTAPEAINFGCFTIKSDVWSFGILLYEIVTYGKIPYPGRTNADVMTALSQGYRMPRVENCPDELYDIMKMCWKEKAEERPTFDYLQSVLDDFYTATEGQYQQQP

MRCKa/CDC42BPA = MRCKa/CDC42BPA (Homo sapiens, UniProt Q5VT25); details: 1 μM; Run 1, Run 2
P38g = target: T2, P38g (Homo sapiens, UniProt P53778); details: 1 μM; Run 1, Run 2
T2 sequence (P53778 1-367): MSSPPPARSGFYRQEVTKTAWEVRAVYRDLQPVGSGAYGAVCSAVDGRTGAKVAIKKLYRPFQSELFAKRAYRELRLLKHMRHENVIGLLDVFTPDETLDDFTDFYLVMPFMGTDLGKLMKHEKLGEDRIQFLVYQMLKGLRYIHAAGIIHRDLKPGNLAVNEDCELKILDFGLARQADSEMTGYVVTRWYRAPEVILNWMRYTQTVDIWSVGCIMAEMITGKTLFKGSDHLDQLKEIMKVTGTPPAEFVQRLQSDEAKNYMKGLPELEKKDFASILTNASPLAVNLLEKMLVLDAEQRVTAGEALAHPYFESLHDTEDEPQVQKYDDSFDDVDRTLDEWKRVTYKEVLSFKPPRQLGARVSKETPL

RSK2 = RSK2 (Homo sapiens, UniProt P51812); details: 1 μM; Run 1, Run 2
Sequence of RSK2 (P51812 whole entry): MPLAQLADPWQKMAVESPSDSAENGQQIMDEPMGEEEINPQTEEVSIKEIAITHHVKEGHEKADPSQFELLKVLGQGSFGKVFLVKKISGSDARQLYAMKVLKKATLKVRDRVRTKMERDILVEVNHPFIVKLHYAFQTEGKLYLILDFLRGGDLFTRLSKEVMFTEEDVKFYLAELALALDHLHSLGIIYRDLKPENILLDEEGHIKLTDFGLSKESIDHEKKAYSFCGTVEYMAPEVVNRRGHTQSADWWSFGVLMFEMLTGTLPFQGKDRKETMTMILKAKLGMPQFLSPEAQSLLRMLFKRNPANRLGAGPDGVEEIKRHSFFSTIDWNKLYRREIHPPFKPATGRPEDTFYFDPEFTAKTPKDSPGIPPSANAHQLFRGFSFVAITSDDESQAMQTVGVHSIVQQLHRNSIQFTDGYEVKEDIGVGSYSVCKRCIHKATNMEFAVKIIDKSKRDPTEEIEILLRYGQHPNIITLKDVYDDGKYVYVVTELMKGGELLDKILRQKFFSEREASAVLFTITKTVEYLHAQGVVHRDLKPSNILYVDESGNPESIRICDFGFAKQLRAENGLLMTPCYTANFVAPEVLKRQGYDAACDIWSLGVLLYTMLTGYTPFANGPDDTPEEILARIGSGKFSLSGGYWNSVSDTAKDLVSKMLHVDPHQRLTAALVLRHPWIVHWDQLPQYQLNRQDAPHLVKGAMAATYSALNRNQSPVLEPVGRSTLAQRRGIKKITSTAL

SBK1 = SBK1 (Homo sapiens, UniProt Q52WX2); details: 1 μM; Run 1, Run 2
Sequence of SBK1 (Q52WX2 whole entry): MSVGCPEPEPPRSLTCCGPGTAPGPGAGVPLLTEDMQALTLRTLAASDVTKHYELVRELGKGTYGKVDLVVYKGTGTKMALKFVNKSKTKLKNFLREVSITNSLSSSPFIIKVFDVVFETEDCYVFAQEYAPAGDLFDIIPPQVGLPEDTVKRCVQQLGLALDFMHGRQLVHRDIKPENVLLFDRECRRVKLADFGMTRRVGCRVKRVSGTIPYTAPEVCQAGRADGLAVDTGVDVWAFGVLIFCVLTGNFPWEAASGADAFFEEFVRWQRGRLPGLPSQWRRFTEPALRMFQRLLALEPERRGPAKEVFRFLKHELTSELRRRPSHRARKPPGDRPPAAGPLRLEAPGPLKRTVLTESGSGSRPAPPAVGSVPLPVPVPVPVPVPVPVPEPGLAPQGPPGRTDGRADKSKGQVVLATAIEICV

CDK1/cyclin A = CDK1/cyclin A (Homo sapiens, UniProt P06493); experiment: biochemical; details: read-out: % enzyme activity, 1 μM; Run 1, Run 2
Sequence of CDK1/cyclin A (P20248 whole entry): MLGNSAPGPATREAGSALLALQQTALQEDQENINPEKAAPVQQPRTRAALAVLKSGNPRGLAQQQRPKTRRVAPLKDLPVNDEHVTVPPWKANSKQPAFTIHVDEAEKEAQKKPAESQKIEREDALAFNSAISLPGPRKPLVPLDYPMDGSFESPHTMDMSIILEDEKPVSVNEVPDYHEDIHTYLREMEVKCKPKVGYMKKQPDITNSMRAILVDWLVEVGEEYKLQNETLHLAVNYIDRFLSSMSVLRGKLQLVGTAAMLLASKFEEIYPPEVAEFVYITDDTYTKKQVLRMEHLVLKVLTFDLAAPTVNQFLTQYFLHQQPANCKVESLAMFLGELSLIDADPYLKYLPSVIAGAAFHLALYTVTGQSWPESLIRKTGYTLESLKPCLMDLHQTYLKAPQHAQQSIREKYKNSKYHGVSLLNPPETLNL
Sequence of CDK1/cyclin A (P06493 whole entry): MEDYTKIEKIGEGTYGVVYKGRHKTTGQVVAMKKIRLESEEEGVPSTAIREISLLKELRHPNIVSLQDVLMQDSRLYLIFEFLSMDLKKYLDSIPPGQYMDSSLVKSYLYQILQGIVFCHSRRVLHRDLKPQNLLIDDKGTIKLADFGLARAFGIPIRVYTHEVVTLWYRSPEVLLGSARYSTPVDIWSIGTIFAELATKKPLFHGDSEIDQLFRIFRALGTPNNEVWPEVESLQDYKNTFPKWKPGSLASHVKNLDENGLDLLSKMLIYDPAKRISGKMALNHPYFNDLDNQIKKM

RSK4 = RSK4 (Homo sapiens, UniProt Q9UK32); experiment: biochemical; details: read-out: % enzyme activity, 1 μM; Run 1, Run 2
Sequence of RSK4 (Q9UK32 whole entry): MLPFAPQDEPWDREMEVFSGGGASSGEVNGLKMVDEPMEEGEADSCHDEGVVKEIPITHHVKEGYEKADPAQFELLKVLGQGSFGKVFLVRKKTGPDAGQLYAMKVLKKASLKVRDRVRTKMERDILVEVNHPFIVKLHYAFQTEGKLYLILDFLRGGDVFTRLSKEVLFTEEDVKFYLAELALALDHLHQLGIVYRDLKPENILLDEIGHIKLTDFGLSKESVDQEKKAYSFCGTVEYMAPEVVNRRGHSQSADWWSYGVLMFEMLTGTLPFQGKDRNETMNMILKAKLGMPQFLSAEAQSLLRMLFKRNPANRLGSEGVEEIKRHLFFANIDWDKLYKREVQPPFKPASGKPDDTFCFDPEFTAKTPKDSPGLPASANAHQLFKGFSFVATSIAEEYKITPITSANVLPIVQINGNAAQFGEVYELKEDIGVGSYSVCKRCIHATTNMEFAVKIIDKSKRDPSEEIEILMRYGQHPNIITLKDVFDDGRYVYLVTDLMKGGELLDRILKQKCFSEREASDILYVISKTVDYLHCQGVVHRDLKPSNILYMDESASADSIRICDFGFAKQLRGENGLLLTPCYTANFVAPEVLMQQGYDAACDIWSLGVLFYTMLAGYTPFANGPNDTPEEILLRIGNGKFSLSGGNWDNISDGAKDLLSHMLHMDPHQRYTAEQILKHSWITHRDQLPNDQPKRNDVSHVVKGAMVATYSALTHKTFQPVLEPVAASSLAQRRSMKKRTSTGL

SGK1 = target: T3, SGK1 (Homo sapiens, UniProt O00141); experiment: biochemical; details: read-out: % enzyme activity, 1 μM; Run 1, Run 2
T3 sequence (O00141 1-431): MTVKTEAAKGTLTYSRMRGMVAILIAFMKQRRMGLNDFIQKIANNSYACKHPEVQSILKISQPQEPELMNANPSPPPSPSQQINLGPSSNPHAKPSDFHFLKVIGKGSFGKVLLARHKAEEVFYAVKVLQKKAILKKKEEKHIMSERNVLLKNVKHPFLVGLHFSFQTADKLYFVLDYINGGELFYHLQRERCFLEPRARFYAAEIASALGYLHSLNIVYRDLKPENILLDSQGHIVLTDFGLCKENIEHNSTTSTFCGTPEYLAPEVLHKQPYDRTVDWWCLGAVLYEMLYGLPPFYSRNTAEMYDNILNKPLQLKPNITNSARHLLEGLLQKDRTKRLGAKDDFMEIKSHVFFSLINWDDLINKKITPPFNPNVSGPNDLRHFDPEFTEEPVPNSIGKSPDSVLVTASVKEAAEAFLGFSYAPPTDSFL

VRK1 = target: T4, VRK1 (Homo sapiens, UniProt Q99986); experiment: biochemical; details: read-out: % enzyme activity, 1 μM; Run 1, Run 2
T4 sequence (Q99986 1-396): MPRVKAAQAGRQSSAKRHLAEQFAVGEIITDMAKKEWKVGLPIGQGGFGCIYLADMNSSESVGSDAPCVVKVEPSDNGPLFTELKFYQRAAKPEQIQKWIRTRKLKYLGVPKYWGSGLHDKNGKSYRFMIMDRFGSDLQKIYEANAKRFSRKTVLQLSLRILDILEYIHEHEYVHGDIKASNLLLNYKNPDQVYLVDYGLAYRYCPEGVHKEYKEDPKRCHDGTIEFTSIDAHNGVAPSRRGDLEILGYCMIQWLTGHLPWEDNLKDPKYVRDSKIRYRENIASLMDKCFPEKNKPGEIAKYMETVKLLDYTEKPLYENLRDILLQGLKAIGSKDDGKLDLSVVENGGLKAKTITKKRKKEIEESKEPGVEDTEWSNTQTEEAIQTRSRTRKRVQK

Sequence of ABL2/ARG (P42684 whole entry): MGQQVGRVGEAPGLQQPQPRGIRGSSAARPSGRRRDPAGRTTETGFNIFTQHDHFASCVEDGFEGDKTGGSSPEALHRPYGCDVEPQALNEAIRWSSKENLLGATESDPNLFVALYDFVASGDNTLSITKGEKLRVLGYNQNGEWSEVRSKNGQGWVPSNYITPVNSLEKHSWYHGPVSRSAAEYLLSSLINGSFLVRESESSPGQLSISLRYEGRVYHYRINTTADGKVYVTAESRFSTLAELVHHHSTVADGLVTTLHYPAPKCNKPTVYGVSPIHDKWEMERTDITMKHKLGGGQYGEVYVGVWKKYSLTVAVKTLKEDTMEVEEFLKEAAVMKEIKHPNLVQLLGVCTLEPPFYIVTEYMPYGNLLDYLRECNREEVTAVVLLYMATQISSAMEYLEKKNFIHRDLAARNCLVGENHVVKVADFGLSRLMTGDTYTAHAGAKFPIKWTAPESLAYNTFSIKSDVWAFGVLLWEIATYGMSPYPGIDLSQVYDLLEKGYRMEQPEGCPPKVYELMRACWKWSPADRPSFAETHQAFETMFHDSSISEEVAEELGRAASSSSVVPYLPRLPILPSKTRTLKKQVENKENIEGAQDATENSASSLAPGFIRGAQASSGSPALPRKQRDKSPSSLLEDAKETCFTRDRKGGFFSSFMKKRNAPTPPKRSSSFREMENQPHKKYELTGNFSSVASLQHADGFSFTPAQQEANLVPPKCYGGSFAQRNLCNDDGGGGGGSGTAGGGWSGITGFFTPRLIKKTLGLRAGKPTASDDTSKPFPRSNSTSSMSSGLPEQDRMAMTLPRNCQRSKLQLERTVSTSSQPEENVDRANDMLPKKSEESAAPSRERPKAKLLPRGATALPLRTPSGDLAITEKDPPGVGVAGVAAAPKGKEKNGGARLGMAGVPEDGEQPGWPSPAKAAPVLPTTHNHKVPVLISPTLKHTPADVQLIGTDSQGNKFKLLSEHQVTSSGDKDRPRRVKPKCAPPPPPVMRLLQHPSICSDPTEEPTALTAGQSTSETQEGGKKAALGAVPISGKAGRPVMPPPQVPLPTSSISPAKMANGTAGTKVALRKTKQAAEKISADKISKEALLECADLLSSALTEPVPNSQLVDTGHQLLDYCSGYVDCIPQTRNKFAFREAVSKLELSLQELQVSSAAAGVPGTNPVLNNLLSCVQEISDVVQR

Row | SMILES | % enzyme activity (ABL2/ARG) [%] | % enzyme activity (ERK7/MAPK15) [%] | % enzyme activity (LYN B) [%] | % enzyme activity (MRCKa/CDC42BPA) [%] | % enzyme activity (P38g) [%] | % enzyme activity (RSK2) [%] | % enzyme activity (SBK1) [%] | remaining activity at 1 µM (CDK1/cyclin A) [%] | remaining activity at 1 µM (RSK4) [%] | remaining activity at 1 µM (SGK1) [%] | remaining activity at 1 µM (VRK1) [%]
1 | COc1cc(-c2cncc(-c3ccc(N4CCN(C)CC4)cc3)c2C)cc(F)c1C(N)=O [Compound 26a, 2-Fluoro-6-methoxy-4-(4-methyl-5-(4-(4-methylpiperazin-1-yl)phenyl)pyridin-3-yl)benzamide] | 95.77 | 85.69 | 96.56 | 102.07 | 107.36 | 99.92 | 93.74 | 94.7 | 96 | 94.9 | 104
2 | COc1cc(-c2cncc(-c3ccc(N4C[C@@H](C)N(C)[C@@H](C)C4)cc3)c2C)cc(F)c1C(N)=O [Compound 26c, 2-Fluoro-6-methoxy-4-(4-methyl-5-(4-((3R,5S)-3,4,5-trimethylpiperazin-1-yl)phenyl)pyridin-3-yl)benzamide] | 96.59 | 96.45 | 97.80 | 104.72 | 105.83 | 101.06 | 101.08 | 90.8 | 95.5 | 98.8 | 102

Source: article PMC8213057, “Targeting ALK2: An Open Science Approach to Developing Therapeutics for the Treatment of Diffuse Intrinsic Pontine Glioma” (Journal of Medicinal Chemistry, 2020)
